≈ marks a conversion by molar mass, not a printed value.
Tests used:
Format in all cases: cell-based
[1] = test system: Haemophilus infuenzae ATCC43095; experiment: In vitro antibacterial activity, microbroth dilution method (CLSI method), test bacterium A; conditions: read-out: MIC (minimum inhibitory concentration), test bacterium A
Protocol: (§1) In vitro antibacterial activities of the compounds of the present invention against various test bacteria were measured according to the microbroth dilution method (CLSI method). Among them, the bacteria C, D and E are erythromycin resistant bacteria. The MIC values (minimum inhibitory concentration, μg/ml) for the test bacteria A and B are exemplified in Table 22.

[2] = test system: Streptococcus pneumoniae ATCC49619; experiment: In vitro antibacterial activity, microbroth dilution method (CLSI method), test bacterium B; conditions: read-out: MIC (minimum inhibitory concentration), test bacterium B
Protocol: as §1

[3] = test system: Streptococcus pneumoniae ATCC700904; experiment: In vitro antibacterial activity, microbroth dilution method (CLSI method), test bacterium C (erythromycin resistant); conditions: read-out: MIC (minimum inhibitory concentration), test bacterium C
Protocol: as §1

[4] = test system: Streptococcus pyogenes M808; experiment: In vitro antibacterial activity, microbroth dilution method (CLSI method), test bacterium D (erythromycin resistant); conditions: read-out: MIC (minimum inhibitory concentration), test bacterium D
Protocol: as §1

MIC [1] [µg/mL] | MIC [2] [µg/mL] | MIC [3] [µg/mL] | MIC [4] [µg/mL] | Compound
16 (≈ 14.8 µM) | 0.03 (≈ 0.0277 µM) |  |  | CC[C@H]1OC(=O)[C@H](C)[C@@H](O[C@H]2C[C@@](C)(OC)[C@@](O)(CN(C)CCN(C)C)[C@H](C)O2)[C@H](C)[C@@H](O[C@@H]2O[C@H](C)C[C@H](N(C)C)[C@H]2O)[C@@](C)(OC(=O)NC/C=C/c2ccc3ncccc3c2)C[C@@H](C)C(=O)[C@H](C)[C@H]2NC(=O)O[C@@]21C [Example348]
 |  | 0.12 to 0.25 (≈ 0.115 to 0.239 µM) | 4 to 8 (≈ 3.82 to 7.64 µM) | CC[C@H]1OC(=O)[C@H](C)[C@@H](O[C@H]2C[C@@](C)(OC)[C@@](O)(CN(C)CCN(CC)CC)[C@H](C)O2)[C@H](C)[C@@H](O[C@@H]2O[C@H](C)C[C@H](N(C)C)[C@H]2O)[C@@](C)(OC)C[C@@H](C)C(=O)[C@H](C)[C@H]2N(CC3CCS(=O)(=O)C3)C(=O)O[C@]12C (some centres unmarked) [Example 154]
 |  | 0.12 to 0.25 (≈ 0.111 to 0.231 µM) | 4 to 8 (≈ 3.7 to 7.4 µM) | CC[C@H]1OC(=O)[C@H](C)[C@@H](O[C@H]2C[C@@](C)(OC)[C@@](O)(CN(CCOC)CCN(CC)CC)[C@H](C)O2)[C@H](C)[C@@H](O[C@@H]2O[C@H](C)C[C@H](N(C)C)[C@H]2O)[C@@](C)(OC)C[C@@H](C)C(=O)[C@H](C)[C@H]2N(CCNS(C)(=O)=O)C(=O)O[C@]12C [Example 443]
4 (≈ 4.3 µM) | 0.03 (≈ 0.0322 µM) |  |  | CC[C@H]1OC(=O)[C@H](C)[C@@H](O[C@H]2C[C@@](C)(OC)[C@@](O)(CN(C)CCN(CC)CC)[C@H](C)O2)[C@H](C)[C@@H](O[C@@H]2O[C@H](C)C[C@H](N(C)C)[C@H]2O)[C@@](C)(OC)C[C@@H](C)C(=O)[C@H](C)[C@H]2N(O)C(=O)O[C@]12C [Example170]
 |  | 0.5 to 2 (≈ 0.538 to 2.15 µM) | ≥ 16 | CC[C@H]1OC(=O)[C@H](C)[C@@H](O[C@H]2C[C@@](C)(OC)[C@@](O)(CN(C)C(=O)CN(CC)CC)[C@H](C)O2)[C@H](C)[C@@H](O[C@@H]2O[C@H](C)C[C@H](N(C)C)[C@H]2O)[C@@](C)(OC)C[C@@H](C)C(=O)[C@H](C)[C@H]2NC(=O)O[C@@]21C [Example 329]
 |  | 0.12 to 0.25 (≈ 0.113 to 0.234 µM) | ≤ 2 | CC[C@H]1OC(=O)[C@H](C)[C@@H](O[C@H]2C[C@@](C)(OC)[C@@](O)(CN(C)CCN(C(C)C)C(C)C)[C@H](C)O2)[C@H](C)[C@@H](O[C@@H]2O[C@H](C)C[C@H](N(C)C)[C@H]2O)[C@@](C)(OC)C[C@@H](C)C(=O)[C@H](C)[C@H]2N(CCOS(N)(=O)=O)C(=O)O[C@]12C [Example 456]
 |  | 0.12 to 0.25 (≈ 0.113 to 0.235 µM) | 4 to 8 (≈ 3.76 to 7.52 µM) | CC[C@H]1OC(=O)[C@H](C)[C@@H](O[C@H]2C[C@@](C)(OC)[C@@](O)(CN(C)CCN(C(C)C)C(C)C)[C@H](C)O2)[C@H](C)[C@@H](O[C@@H]2O[C@H](C)C[C@H](N(C)C)[C@H]2O)[C@@](C)(OC)C[C@@H](C)C(=O)[C@H](C)[C@H]2N(CCS(=O)(=O)NC)C(=O)O[C@]12C [Example 451]
 |  | 0.5 to 2 (≈ 0.504 to 2.02 µM) | ≥ 16 | CC[C@H]1OC(=O)[C@H](C)[C@@H](O[C@H]2C[C@@](C)(OC)[C@@](O)(CN(C)CCN(C)C(C)(C)c3ccccc3OC)[C@H](C)O2)[C@H](C)[C@@H](O[C@@H]2O[C@H](C)C[C@H](N(C)C)[C@H]2O)[C@]2(C)C[C@@H](C)C(O2)[C@H](C)[C@H]2NC(=O)O[C@@]21C [Example 332]
4 (≈ 3.76 µM) | 0.03 (≈ 0.0282 µM) |  |  | CC[C@H]1OC(=O)[C@H](C)[C@@H](O[C@H]2C[C@@](C)(OC)[C@@](O)(CN(C)CCN(C(C)C)C(C)C)[C@H](C)O2)[C@H](C)[C@@H](O[C@@H]2O[C@H](C)C[C@H](N(C)C)[C@H]2O)[C@@](C)(OC)C[C@@H](C)C(=O)[C@H](C)[C@H]2N(CCS(=O)(=O)NC)C(=O)O[C@]12C [Example451]
 |  | 0.12 to 0.25 (≈ 0.129 to 0.268 µM) | 4 to 8 (≈ 4.3 to 8.59 µM) | CC[C@H]1OC(=O)[C@H](C)[C@@H](O[C@H]2C[C@@](C)(OC)[C@@](O)(CN(C)CCN(CC)CC)[C@H](C)O2)[C@H](C)[C@@H](O[C@@H]2O[C@H](C)C[C@H](N(C)C)[C@H]2O)[C@@](C)(OC)C[C@@H](C)C(=O)[C@H](C)[C@H]2N(O)C(=O)O[C@]12C [Example 170]
8 (≈ 7.65 µM) | 0.06 (≈ 0.0574 µM) |  |  | CC[C@H]1OC(=O)[C@H](C)[C@@H](O[C@H]2C[C@@](C)(OC)[C@@](O)(CN(C)CCN(C)C(C)(C)c3ccccc3OC)[C@H](C)O2)[C@H](C)[C@@H](O[C@@H]2O[C@H](C)C[C@H](N(C)C)[C@H]2O)[C@@](C)(OC)C[C@@H](C)C(=O)[C@H](C)[C@H]2C(C#N)C(=O)O[C@@]21C (some centres unmarked) [Example363]
 |  | 0.12 to 0.25 (≈ 0.113 to 0.235 µM) | 4 to 8 (≈ 3.76 to 7.52 µM) | CC[C@H]1OC(=O)[C@H](C)[C@@H](O[C@H]2C[C@@](C)(OC)[C@@](O)(CN(C)CCN(CC)CC)[C@H](C)O2)[C@H](C)[C@@H](O[C@@H]2O[C@H](C)C[C@H](N(C)C)[C@H]2O)[C@@](C)(OC)C[C@@H](C)C(=O)[C@H](C)[C@H]2N(CCN3CCNS3(=O)=O)C(=O)O[C@]12C [Example 440]
 |  | 0.12 to 0.25 (≈ 0.114 to 0.238 µM) | 4 to 8 (≈ 3.81 to 7.62 µM) | CC[C@H]1OC(=O)[C@H](C)[C@@H](O[C@H]2C[C@@](C)(OC)[C@@](O)(CN(CC)CCN(CC)CC)[C@H](C)O2)[C@H](C)[C@@H](O[C@@H]2O[C@H](C)C[C@H](N(C)C)[C@H]2O)[C@@](C)(OC)C[C@@H](C)C(=O)[C@H](C)[C@H]2N(CCNS(C)(=O)=O)C(=O)O[C@]12C [Example 413]
 |  | 0.12 to 0.25 (≈ 0.113 to 0.236 µM) | ≤ 2 | CC[C@H]1OC(=O)[C@H](C)[C@@H](O[C@H]2C[C@@](C)(OC)[C@@](O)(CN(C)CCN(CC)C3CCC3)[C@H](C)O2)[C@H](C)[C@@H](O[C@@H]2O[C@H](C)C[C@H](N(C)C)[C@H]2O)[C@@](C)(OC)C[C@@H](C)C(=O)[C@H](C)[C@H]2N(CCCS(C)(=O)=O)C(=O)O[C@]12C [Example 418]
 |  | 0.5 to 2 (≈ 0.538 to 2.15 µM) | ≥ 16 | CC[C@H]1OC(=O)[C@H](C)[C@@H](O[C@H]2C[C@@](C)(OC)[C@@](O)(CN(C)CCN(CC)C(C)=O)[C@H](C)O2)[C@H](C)[C@@H](O[C@@H]2O[C@H](C)C[C@H](N(C)C)[C@H]2O)[C@@](C)(OC)C[C@@H](C)C(=O)[C@H](C)[C@H]2NC(=O)O[C@@]21C [Example 263]
 |  | 0.5 to 2 (≈ 0.555 to 2.22 µM) | ≥ 16 | CC[C@H]1OC(=O)[C@H](C)[C@@H](O[C@H]2C[C@@](C)(OC)[C@@](O)(CN(C)CCN(C)C)[C@H](C)O2)[C@H](C)[C@@H](O[C@@H]2O[C@H](C)C[C@H](N(C)C)[C@H]2O)[C@@](C)(OC)C[C@@H](C)C(=O)[C@H](C)[C@H]2N(C)C(=O)O[C@]12C [Example 183]
 |  | 0.12 to 0.25 (≈ 0.111 to 0.231 µM) | 4 to 8 (≈ 3.69 to 7.38 µM) | CC[C@H]1OC(=O)[C@H](C)[C@@H](O[C@H]2C[C@@](C)(OC)[C@@](O)(CN(C)CCN(C)C)[C@H](C)O2)[C@H](C)[C@@H](O[C@@H]2O[C@H](C)C[C@H](N(C)C)[C@H]2O)[C@@](C)(OC(=O)NC/C=C/c2ccc3ncccc3c2)C[C@@H](C)C(=O)[C@H](C)[C@H]2NC(=O)O[C@@]21C [Example 348]
 |  | 0.12 to 0.25 (≈ 0.127 to 0.264 µM) | ≥ 16 | CC[C@H]1OC(=O)[C@H](C)[C@@H](O[C@H]2C[C@@](C)(OC)[C@@](O)(CN(C)CCN(CC)C(=O)OC)[C@H](C)O2)[C@H](C)[C@@H](O[C@@H]2O[C@H](C)C[C@H](N(C)C)[C@H]2O)[C@@](C)(OC)C[C@@H](C)C(=O)[C@H](C)[C@H]2NC(=O)O[C@@]21C [Example 264]

Compound | MIC [1] [µg/mL] | MIC [2] [µg/mL] | MIC [3] [µg/mL] | MIC [4] [µg/mL]
CC[C@H]1OC(=O)[C@H](C)[C@@H](O[C@H]2C[C@@](C)(OC)[C@@](O)(CN(C)CCN3C4CCC3CC4)[C@H](C)O2)[C@H](C)[C@@H](O[C@@H]2O[C@H](C)C[C@H](N(C)C)[C@H]2O)[C@@](C)(OC)C[C@@H](C)C(=O)[C@H](C)[C@H]2N(CCNS(C)(=O)=O)C(=O)O[C@]12C [Example 446] |  |  | 0.12 to 0.25 (≈ 0.113 to 0.236 µM) | 4 to 8 (≈ 3.77 to 7.54 µM)

From patent US9139609B2, “C-4″ position substituted macrolide derivative” (priority 2011, dated 2015)
